According to ChEMBL document CHEMBL3774336, “Identification of spirooxindole and dibenzoxazepine motifs as potent mineralocorticoid receptor antagonists” (Bioorg Med Chem, 2016):

Assays:
[1] = target: T1, Mineralocorticoid receptor (Homo sapiens, UniProt P08235, C808S)
[2] = target: T1, Mineralocorticoid receptor; remark: listed apart in the source
Cytochrome P450 2C9 = Cytochrome P450 2C9 (Homo sapiens, UniProt P11712); experiment: Inhibition of CYP2C9 (unknown origin); type: ADME
Cytochrome P450 2D6 = Cytochrome P450 2D6 (Homo sapiens, UniProt P10635); experiment: Inhibition of CYP2D6 (unknown origin); type: ADME
Chain of Cytochrome P450 2D6 (P10635 whole entry): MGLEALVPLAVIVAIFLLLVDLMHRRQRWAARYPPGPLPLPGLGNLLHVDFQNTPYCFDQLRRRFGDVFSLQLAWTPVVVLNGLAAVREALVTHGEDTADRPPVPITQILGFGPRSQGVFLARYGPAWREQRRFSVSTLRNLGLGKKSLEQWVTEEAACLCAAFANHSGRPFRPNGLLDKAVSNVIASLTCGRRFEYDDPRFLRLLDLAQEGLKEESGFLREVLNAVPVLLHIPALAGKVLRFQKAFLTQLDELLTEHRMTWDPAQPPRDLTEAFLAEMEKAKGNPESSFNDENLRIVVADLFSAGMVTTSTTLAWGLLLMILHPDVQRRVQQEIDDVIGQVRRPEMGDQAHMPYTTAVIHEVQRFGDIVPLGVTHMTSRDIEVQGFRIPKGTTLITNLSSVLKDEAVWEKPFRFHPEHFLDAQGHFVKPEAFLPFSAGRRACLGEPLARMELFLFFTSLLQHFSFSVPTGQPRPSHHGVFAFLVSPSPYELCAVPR

[3] = target: 5-hydroxytryptamine receptor 2B (Homo sapiens) (UniProt P41595); experiment: Inhibition of serotonin 5H2B receptor (unknown origin) at 10 uM
Chain of 5-hydroxytryptamine receptor 2B (Homo sapiens) (P41595 whole entry): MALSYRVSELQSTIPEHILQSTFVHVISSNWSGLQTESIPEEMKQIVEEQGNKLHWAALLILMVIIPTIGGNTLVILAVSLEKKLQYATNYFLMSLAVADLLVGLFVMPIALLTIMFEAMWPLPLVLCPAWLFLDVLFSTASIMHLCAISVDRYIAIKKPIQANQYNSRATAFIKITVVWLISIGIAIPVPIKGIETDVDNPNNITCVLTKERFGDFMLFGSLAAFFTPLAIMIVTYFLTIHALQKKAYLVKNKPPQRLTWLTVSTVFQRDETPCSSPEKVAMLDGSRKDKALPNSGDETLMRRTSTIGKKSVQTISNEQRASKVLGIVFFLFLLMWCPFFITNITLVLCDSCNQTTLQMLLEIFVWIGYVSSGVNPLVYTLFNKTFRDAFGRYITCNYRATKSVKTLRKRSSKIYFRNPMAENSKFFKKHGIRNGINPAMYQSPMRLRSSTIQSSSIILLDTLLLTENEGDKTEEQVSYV

[4] = target: Histamine H1 receptor (Homo sapiens) (UniProt P35367); experiment: Inhibition of histamine H1 receptor (unknown origin) at 10 uM
Chain of Histamine H1 receptor (Homo sapiens) (P35367 whole entry): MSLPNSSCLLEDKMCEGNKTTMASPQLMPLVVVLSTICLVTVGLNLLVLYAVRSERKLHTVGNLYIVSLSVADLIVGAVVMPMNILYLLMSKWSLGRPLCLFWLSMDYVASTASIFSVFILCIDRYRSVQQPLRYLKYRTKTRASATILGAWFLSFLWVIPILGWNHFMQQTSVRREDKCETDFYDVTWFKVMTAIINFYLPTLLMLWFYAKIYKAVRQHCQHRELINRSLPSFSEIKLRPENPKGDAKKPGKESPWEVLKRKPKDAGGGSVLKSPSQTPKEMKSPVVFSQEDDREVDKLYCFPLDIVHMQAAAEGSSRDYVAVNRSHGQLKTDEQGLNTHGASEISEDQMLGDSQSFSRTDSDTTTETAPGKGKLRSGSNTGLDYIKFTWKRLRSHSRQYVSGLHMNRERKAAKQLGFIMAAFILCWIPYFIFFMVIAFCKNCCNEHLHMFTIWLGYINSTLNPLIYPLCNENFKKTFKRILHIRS

hERG (KCNH2) = hERG (KCNH2) (Homo sapiens, UniProt Q12809); experiment: Inhibition of human ERG (unknown origin) at 10 uM
Chain of hERG (KCNH2) (Q12809 whole entry): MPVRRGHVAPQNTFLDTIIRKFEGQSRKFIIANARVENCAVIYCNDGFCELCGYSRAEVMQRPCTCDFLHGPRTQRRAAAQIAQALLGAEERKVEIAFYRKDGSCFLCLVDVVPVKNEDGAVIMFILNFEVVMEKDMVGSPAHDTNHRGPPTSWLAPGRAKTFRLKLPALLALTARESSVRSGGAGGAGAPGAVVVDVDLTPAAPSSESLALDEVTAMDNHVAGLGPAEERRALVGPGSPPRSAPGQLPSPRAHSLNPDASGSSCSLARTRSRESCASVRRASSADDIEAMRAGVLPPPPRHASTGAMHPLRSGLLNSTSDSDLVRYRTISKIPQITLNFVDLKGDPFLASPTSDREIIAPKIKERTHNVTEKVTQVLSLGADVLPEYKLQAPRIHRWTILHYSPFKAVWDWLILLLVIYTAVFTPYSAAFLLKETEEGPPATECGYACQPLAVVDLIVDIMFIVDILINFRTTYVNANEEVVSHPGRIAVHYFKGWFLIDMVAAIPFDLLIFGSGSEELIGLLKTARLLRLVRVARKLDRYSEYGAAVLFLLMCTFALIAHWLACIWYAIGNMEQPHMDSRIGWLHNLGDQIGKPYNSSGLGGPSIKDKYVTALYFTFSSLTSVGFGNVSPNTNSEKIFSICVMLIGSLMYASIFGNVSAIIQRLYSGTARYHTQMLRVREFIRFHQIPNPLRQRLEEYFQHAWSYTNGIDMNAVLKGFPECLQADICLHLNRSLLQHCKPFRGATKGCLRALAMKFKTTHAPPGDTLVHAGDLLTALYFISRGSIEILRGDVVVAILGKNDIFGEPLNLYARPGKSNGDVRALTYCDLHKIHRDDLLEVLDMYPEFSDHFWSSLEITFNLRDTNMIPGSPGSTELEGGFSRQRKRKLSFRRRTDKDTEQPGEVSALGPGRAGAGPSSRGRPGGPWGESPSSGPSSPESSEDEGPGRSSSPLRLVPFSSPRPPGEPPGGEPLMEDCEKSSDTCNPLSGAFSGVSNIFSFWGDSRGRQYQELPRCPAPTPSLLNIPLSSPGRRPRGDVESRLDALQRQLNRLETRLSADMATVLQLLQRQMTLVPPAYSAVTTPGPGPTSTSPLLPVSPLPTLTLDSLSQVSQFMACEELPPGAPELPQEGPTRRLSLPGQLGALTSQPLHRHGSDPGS

[5] = target: T2, Alpha-2A adrenergic receptor (Homo sapiens) (UniProt P08913); experiment: Inhibition of adrenergic alpha2A receptor (unknown origin) at 10 uM
T2 sequence (whole entry): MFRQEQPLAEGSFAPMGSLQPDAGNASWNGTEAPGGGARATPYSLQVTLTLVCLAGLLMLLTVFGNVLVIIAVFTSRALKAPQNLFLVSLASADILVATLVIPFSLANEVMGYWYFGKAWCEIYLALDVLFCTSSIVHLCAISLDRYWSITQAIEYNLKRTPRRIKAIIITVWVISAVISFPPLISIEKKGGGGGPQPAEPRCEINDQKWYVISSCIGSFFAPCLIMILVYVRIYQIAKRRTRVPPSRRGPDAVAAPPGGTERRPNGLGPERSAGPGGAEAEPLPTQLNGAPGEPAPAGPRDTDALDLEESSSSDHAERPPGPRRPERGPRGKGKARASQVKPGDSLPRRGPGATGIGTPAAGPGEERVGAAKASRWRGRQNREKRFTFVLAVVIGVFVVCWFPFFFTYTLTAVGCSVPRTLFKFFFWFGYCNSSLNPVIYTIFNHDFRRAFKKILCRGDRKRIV

[6] = Half life of compound in rat liver microsomes; type: ADME
Progesterone receptor = target: T3, Progesterone receptor (Homo sapiens, UniProt P06401); experiment: Inhibition of GST-tagged human progesterone receptor LBD domain expressed in insect cells by Gal4-based fluorescence polarization assay
T3 sequence (P06401 whole entry): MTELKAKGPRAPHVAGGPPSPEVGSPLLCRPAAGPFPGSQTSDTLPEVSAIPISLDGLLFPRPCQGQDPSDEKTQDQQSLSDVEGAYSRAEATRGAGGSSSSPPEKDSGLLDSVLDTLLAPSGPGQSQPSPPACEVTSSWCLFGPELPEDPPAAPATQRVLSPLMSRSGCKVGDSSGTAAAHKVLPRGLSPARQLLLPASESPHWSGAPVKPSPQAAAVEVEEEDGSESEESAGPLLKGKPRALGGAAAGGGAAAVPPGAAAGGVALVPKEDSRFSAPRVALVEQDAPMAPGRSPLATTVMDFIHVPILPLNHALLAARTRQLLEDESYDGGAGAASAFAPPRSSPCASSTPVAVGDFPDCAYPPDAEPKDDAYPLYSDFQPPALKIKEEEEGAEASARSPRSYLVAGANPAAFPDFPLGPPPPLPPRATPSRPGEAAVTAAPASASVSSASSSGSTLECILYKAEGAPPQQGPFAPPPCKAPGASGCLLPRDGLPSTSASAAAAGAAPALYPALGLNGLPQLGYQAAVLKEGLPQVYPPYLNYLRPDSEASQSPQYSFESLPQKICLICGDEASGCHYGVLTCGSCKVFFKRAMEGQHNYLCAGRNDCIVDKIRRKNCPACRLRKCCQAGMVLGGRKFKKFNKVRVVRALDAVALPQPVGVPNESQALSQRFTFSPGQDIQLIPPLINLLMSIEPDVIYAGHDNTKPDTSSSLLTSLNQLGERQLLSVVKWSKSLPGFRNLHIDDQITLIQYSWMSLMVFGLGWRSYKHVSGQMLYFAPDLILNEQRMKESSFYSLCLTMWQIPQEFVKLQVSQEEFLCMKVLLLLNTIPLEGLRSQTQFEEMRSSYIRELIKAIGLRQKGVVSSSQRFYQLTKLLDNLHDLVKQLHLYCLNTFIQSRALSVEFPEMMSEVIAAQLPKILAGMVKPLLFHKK

Glucocorticoid receptor = target: T4, Glucocorticoid receptor (Homo sapiens, UniProt P04150); experiment: Inhibition of GST-tagged human glucocorticoid receptor LBD domain expressed in insect cells at by Gal4-based fluorescence polarization assay
T4 sequence (P04150 whole entry): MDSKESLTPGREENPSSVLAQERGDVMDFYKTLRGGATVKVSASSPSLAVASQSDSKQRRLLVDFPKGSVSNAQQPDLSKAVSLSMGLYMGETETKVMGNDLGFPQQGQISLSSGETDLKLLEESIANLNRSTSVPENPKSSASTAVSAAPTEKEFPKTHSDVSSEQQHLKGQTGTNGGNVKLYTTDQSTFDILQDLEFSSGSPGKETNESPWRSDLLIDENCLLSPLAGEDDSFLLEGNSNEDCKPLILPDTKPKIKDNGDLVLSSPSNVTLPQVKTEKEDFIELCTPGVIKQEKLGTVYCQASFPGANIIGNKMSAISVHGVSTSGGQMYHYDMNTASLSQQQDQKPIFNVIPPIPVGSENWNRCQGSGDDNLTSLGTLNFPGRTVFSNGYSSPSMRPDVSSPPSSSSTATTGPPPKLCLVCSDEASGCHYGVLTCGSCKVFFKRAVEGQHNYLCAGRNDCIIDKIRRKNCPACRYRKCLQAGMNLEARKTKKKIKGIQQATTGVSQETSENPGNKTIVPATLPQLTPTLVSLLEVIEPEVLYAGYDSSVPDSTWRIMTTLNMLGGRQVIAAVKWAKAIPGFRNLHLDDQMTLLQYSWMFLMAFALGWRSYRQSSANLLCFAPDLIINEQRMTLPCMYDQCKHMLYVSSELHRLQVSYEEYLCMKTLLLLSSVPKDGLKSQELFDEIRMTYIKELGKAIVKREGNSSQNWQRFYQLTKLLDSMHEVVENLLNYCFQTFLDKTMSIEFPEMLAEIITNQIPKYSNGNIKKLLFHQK

Estrogen receptor = target: T5, Estrogen receptor (Homo sapiens, UniProt P03372); experiment: Inhibition of estrogen receptor (unknown origin) by Gal4-based luciferase assay
T5 sequence (P03372 whole entry): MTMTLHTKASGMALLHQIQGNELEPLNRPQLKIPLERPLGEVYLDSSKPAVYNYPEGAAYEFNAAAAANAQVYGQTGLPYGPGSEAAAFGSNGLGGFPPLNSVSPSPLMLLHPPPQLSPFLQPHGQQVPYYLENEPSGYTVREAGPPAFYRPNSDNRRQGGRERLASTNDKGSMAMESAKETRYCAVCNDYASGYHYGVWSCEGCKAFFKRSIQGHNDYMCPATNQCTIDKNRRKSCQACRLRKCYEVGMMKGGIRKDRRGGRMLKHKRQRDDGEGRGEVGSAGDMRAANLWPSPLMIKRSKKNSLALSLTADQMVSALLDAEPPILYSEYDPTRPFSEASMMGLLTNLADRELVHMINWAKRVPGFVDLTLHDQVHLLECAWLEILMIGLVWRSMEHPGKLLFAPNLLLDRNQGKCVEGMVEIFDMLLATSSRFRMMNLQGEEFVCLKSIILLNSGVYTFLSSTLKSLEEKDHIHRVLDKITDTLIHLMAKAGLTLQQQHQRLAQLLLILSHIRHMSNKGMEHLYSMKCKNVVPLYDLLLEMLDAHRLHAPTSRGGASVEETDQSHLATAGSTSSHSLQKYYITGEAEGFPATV

Cytochrome P450 3A4 = Cytochrome P450 3A4 (Homo sapiens, UniProt P08684)
Chain of Cytochrome P450 3A4 (P08684 whole entry): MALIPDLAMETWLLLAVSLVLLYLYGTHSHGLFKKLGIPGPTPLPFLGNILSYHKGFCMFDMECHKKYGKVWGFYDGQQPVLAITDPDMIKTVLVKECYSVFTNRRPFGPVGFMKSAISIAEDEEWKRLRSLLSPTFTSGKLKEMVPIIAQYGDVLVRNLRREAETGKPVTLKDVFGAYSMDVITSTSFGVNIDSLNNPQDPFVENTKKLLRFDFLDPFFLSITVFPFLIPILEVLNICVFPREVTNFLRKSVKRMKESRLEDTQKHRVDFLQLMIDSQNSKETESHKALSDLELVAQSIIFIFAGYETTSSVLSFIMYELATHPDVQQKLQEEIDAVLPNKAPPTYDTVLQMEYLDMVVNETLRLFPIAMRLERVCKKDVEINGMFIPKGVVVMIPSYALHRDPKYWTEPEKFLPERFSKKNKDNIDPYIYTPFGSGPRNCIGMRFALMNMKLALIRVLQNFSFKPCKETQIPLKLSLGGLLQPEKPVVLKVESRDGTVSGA
Description: Inhibition of CYP3A4 (unknown origin)

T1 sequence (P08235 whole entry C808S): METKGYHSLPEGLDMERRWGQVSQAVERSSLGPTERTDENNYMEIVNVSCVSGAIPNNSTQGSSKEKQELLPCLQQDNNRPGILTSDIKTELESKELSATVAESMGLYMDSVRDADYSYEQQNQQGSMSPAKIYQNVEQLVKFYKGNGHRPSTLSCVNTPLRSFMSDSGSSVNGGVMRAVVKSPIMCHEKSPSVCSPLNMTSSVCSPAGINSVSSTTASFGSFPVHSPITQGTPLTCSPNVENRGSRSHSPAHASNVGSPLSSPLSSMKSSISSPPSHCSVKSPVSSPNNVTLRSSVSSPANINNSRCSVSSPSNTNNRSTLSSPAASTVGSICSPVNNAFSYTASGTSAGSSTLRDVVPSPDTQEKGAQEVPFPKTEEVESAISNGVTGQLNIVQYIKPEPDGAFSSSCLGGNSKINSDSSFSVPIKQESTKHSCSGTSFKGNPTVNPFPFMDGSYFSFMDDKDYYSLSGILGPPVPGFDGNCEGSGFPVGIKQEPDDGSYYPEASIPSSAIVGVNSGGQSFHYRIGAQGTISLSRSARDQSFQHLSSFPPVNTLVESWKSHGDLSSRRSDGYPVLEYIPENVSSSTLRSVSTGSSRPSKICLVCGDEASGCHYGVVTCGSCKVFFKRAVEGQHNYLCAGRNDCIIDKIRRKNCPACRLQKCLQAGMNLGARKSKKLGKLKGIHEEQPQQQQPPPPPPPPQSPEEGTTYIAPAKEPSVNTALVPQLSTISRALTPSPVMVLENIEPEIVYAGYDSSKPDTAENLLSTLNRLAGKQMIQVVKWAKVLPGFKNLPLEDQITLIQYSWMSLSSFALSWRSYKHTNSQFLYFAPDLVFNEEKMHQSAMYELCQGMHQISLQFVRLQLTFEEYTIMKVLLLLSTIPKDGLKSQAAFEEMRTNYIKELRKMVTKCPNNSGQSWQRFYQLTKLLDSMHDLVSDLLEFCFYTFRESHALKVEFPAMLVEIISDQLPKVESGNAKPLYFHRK
Chain of Cytochrome P450 2C9 (P11712 whole entry): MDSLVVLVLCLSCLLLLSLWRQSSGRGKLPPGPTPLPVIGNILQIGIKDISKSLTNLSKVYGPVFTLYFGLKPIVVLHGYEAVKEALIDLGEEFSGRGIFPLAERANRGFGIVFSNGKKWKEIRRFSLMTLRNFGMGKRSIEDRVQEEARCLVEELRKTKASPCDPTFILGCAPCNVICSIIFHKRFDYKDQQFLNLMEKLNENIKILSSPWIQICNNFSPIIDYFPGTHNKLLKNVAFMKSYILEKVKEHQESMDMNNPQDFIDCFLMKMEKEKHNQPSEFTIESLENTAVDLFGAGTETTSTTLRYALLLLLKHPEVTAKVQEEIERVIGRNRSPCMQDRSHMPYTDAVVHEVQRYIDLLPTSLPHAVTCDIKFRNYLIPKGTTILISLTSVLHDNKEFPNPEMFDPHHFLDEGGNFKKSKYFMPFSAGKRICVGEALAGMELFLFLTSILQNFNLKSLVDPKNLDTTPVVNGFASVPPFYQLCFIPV

| Structure (SMILES) | IC50 [1] [nM] | Ki [2] [nM] | IC50 (Cytochrome P450 2C9) [nM] | IC50 (Cytochrome P450 2D6) [nM] | inhibition [3] [%] | inhibition [4] [%] | inhibition [5] [%] | half-life [6] [min] | IC50 (Progesterone receptor) [nM] | IC50 (Glucocorticoid receptor) [nM] | IC50 (Estrogen receptor) [nM] | IC50 (Cytochrome P450 3A4) [nM] | inhibition at 10 µM (hERG (KCNH2)) [%] |
| --- | --- | --- | --- | --- | --- | --- | --- | --- | --- | --- | --- | --- | --- |
| O=C1COc2ccc(/C=C\c3ccc(F)cc3F)cc2N1 | 1510 | 258 |  |  |  |  |  |  |  |  |  |  |  |
| O=C1COc2ccc(/C=C(\c3ccccc3)c3ccc(F)cc3F)cc2N1 | 1570 | 55 |  |  |  |  |  |  |  |  |  |  |  |
| O=C1COc2ccc(CN3c4ccccc4COc4cc(F)ccc43)cc2N1 | 176 | 31 | 649 | 16400 | 94 | 47 | 72 |  |  |  |  | 5540 | 29 |
| CN(Cc1ccc2c(c1)NC(=O)CO2)c1ccc(F)cc1F | 306 | 230 |  |  |  |  |  |  |  |  |  |  |  |
| O=S1(=O)Cc2ccc(/C=C3\c4ccccc4COc4cc(F)ccc43)cc2N1 | 2550 | 694 |  |  |  |  |  |  |  |  |  |  |  |
| CC1(C)OC(=S)Nc2ccc(S(=O)(=O)N3c4ccccc4COc4cc(F)ccc43)cc21 | 21 | 6 | 397 | 4100 | 71 | 33 | 85 | > 60 | > 2000 | 651 | > 2000 | 363 | 48 |
| O=C1COc2ccc(S(=O)(=O)N3c4ccccc4COc4cc(F)ccc43)cc2N1 | 56 | 129 | 1560 | 21300 | 34 | 1 | 24 |  |  |  |  |  | 28 |
| O=C(O)CCN1CCC2(CC1)C(=O)Nc1cc(/C=C3\c4ccccc4COc4cc(F)ccc43)ccc12 | 29 | 16 | 12600 | 29900 | 36 | 60 | 75 | > 60 | > 12000 | > 12000 | > 12000 | 26000 | 32 |
| O=C1Nc2cc(CN3c4ccccc4COc4cc(F)ccc43)ccc2C12CCNCC2 | 2990 | 1080 |  |  |  |  |  |  |  |  |  |  |  |
| O=C1COc2ccc(COc3ccc(F)cc3F)cc2N1 | 1800 | 980 |  |  |  |  |  |  |  |  |  |  |  |
| O=C1COc2ccc(S(=O)(=O)N(Cc3cccnc3)c3ccc(F)cc3)cc2N1 | > 10 | > 10 |  |  |  |  |  |  |  |  |  |  |  |
| O=C(c1ccc2c(c1)NC(=O)C21CCNCC1)N1c2ccccc2COc2cc(F)ccc21 | 4930 | 1090 |  |  |  |  |  |  |  |  |  |  |  |
| O=C1Nc2cc(S(=O)(=O)N3c4ccccc4COc4cc(F)ccc43)ccc2C12CCNCC2 | 5220 | 5490 |  |  |  |  |  |  |  |  |  |  |  |
| O=C1CCc2c(/C=C3\c4ccccc4COc4cc(F)ccc43)cccc21 | 148 | 13 |  |  |  |  |  |  |  |  |  |  |  |

The remaining compounds from weak to strong by IC50 [1], led by results:

| IC50 [1] [nM] | Ki [2] [nM] | IC50 (Cytochrome P450 2C9) [nM] | IC50 (Cytochrome P450 2D6) [nM] | inhibition [3] [%] | inhibition [4] [%] | inhibition [5] [%] | half-life [6] [min] | IC50 (Progesterone receptor) [nM] | IC50 (Glucocorticoid receptor) [nM] | IC50 (Estrogen receptor) [nM] | IC50 (Cytochrome P450 3A4) [nM] | Structure (SMILES) | inhibition at 10 µM (hERG (KCNH2)) [%] |
| --- | --- | --- | --- | --- | --- | --- | --- | --- | --- | --- | --- | --- | --- |
| 2300 | 162 |  |  |  |  |  |  |  |  |  |  | O=C1COc2ccc(/C=C/c3ccc(F)cc3F)cc2N1 |  |
| 1510 | 1450 |  |  |  |  |  |  |  |  |  |  | O=C1COc2ccc(N(Cc3cccnc3)c3ccc(F)cc3)cc2N1 |  |
| 772 | 144 |  |  |  |  |  |  |  |  |  |  | O=C1COc2ccc(C#Cc3ccc(F)cc3F)cc2N1 |  |
| 318 | 14 |  |  |  |  |  |  |  |  |  |  | OC1CCc2c(/C=C3\c4ccccc4COc4cc(F)ccc43)cccc21 (configuration not stated) |  |
| 103 | 20 |  |  |  |  |  |  |  |  |  |  | O=C1COc2ccc(CCc3ccc(F)cc3F)cc2N1 |  |
| 44 | 19 | 17000 | > 30000 | 66 | 65 | 60 | > 60 | > 37000 | > 37000 | > 37000 | 26100 | C[N+]1([O-])CCC2(CC1)C(=O)Nc1cc(/C=C3\c4ccccc4COc4cc(F)ccc43)ccc12 (configuration not stated) | 55 |
| 23 | 9 | 1600 | > 30000 | 62 | 49 | 76 | 34 | > 25000 | > 25000 | > 25000 | 5810 | O=c1[nH]c2cc(/C=C3\c4ccccc4COc4cc(F)ccc43)ccc2n1[C@@H]1C[C@@H]2COCCN2C1 | 62 |
| 6 | 6 | 3260 | 7750 | 79 | 77 | 88 | 53 | > 5000 | > 5000 | > 40000 | 4780 | CN(C)CC(=O)N1CCC2(CC1)C(=O)Nc1cc(/C=C3\c4ccccc4COc4cc(F)ccc43)ccc12 | 98 |
